Columns and labels:
[1] = test system: SF-539; assay: Growth inhibition of human SF539 cells assessed as cell growth at 0.01 uM incubated for 48 hrs by sulforhodamine B assay relative to control; format: functional; settings: SF-539, 48 h, read-out: Activity
[2] = test system: U-251; assay: Growth inhibition of human U251 cells assessed as cell growth at 0.01 uM incubated for 48 hrs by sulforhodamine B assay relative to control; format: functional; settings: U-251, 48 h, read-out: Activity
[3] = test system: OVCAR-4; assay: Growth inhibition of human OVCAR4 cells assessed as cell growth at 0.1 uM incubated for 48 hrs by sulforhodamine B assay relative to control; format: functional; settings: OVCAR-4, 48 h, read-out: Activity
[4] = test system: MCF7; assay: Growth inhibition of human MCF7 cells assessed as cell growth at 0.01 uM incubated for 48 hrs by sulforhodamine B assay relative to control; format: functional; settings: MCF7, 48 h, read-out: Activity
[5] = test system: SK-OV-3; assay: Growth inhibition of human SKOV3 cells assessed as cell growth at 100 uM incubated for 48 hrs by sulforhodamine B assay relative to control; format: functional; settings: SK-OV-3, 48 h, read-out: Activity
[6] = test system: BT-549; assay: Growth inhibition of human BT549 cells assessed as cell growth at 0.01 uM incubated for 48 hrs by sulforhodamine B assay relative to control; format: functional; settings: BT-549, 48 h, read-out: Activity
[7] = test system: LOX IMVI; assay: Growth inhibition of human LOXIMVI cells assessed as cell growth at 0.1 uM incubated for 48 hrs by sulforhodamine B assay relative to control; format: functional; settings: read-out: Activity
[8] = test system: NCI-H226; assay: Growth inhibition of human NCI-H226 cells assessed as cell growth at 1 uM incubated for 48 hrs by sulforhodamine B assay relative to control; format: functional; settings: NCI-H226, 48 h, read-out: Activity
[9] = test system: NCI/ADR-RES; assay: Growth inhibition of human NCI/ADR-RES cells assessed as cell growth at 1 uM incubated for 48 hrs by sulforhodamine B assay relative to control; format: functional; settings: read-out: Activity
[10] = test system: SF-295; assay: Growth inhibition of human SF295 cells incubated for 48 hrs by sulforhodamine B assay; format: functional, cell-based; settings: SF-295, 48 h
[11] = test system: SNB-75; assay: Growth inhibition of human SNB75 cells assessed as cell growth at 100 uM incubated for 48 hrs by sulforhodamine B assay relative to control; format: functional; settings: SNB-75, 48 h, read-out: Activity
[12] = test system: SK-MEL-28; assay: Growth inhibition of human SK-MEL-28 cells assessed as cell growth at 0.01 uM incubated for 48 hrs by sulforhodamine B assay relative to control; format: functional; settings: SK-MEL-28, 48 h, read-out: Activity
[13] = test system: UO-31; assay: Growth inhibition of human UO31 cells assessed as cell growth at 0.1 uM incubated for 48 hrs by sulforhodamine B assay relative to control; format: functional; settings: UO-31, 48 h, read-out: Activity
[14] = test system: RPMI-8226; assay: Growth inhibition of human RPMI8226 cells assessed as cell growth at 1 uM incubated for 48 hrs by sulforhodamine B assay relative to control; format: functional; settings: RPMI-8226, 48 h, read-out: Activity
[15] = test system: SF-268; assay: Growth inhibition of human SF268 cells assessed as cell growth at 1 uM incubated for 48 hrs by sulforhodamine B assay relative to control; format: functional; settings: SF-268, 48 h, read-out: Activity
[16] = test system: K562; assay: Growth inhibition of human K562 cells incubated for 48 hrs by sulforhodamine B assay; format: functional, cell-based; settings: K562, 48 h
[17] = test system: SF-295; assay: Growth inhibition of human SF295 cells assessed as cell growth at 1 uM incubated for 48 hrs by sulforhodamine B assay relative to control; format: functional; settings: SF-295, 48 h, read-out: Activity
[18] = test system: MDA-MB-231; assay: Growth inhibition of human MDA-MB-231 cells assessed as cell growth at 0.01 uM incubated for 48 hrs by sulforhodamine B assay relative to control; format: functional; settings: MDA-MB-231, 48 h, read-out: Activity
[19] = test system: SK-OV-3; assay: Growth inhibition of human SKOV3 cells assessed as cell growth at 1 uM incubated for 48 hrs by sulforhodamine B assay relative to control; format: functional; settings: SK-OV-3, 48 h, read-out: Activity
[20] = test system: SF-295; assay: Growth inhibition of human SF295 cells assessed as cell growth at 100 uM incubated for 48 hrs by sulforhodamine B assay relative to control; format: functional; settings: SF-295, 48 h, read-out: Activity
[21] = test system: NCI-H522; assay: Growth inhibition of human NCI-H522 cells assessed as cell growth at 1 uM incubated for 48 hrs by sulforhodamine B assay relative to control; format: functional; settings: NCI-H522, 48 h, read-out: Activity
[22] = test system: SNB-19; assay: Growth inhibition of human SNB19 cells assessed as cell growth at 0.01 uM incubated for 48 hrs by sulforhodamine B assay relative to control; format: functional; settings: SNB-19, 48 h, read-out: Activity
[23] = test system: MDA-MB-435; assay: Growth inhibition of human MDA-MB-435 cells incubated for 48 hrs by sulforhodamine B assay; format: functional, cell-based; settings: MDA-MB-435, 48 h
[24] = test system: HCT-15; assay: Growth inhibition of human HCT15 cells assessed as cell growth at 100 uM incubated for 48 hrs by sulforhodamine B assay relative to control; format: functional; settings: HCT-15, 48 h, read-out: Activity
[25] = test system: K562; assay: Growth inhibition of human K562 cells assessed as cell growth at 0.01 uM incubated for 48 hrs by sulforhodamine B assay relative to control; format: functional; settings: K562, 48 h, read-out: Activity
[26] = test system: 786-0; assay: Growth inhibition of human 786-0 cells incubated for 48 hrs by sulforhodamine B assay; format: functional, cell-based; settings: 786-0, 48 h
[27] = test system: NCI/ADR-RES; assay: Growth inhibition of human NCI/ADR-RES cells assessed as cell growth at 100 uM incubated for 48 hrs by sulforhodamine B assay relative to control; format: functional; settings: read-out: Activity
[28] = test system: T47D; assay: Growth inhibition of human T47D cells assessed as cell growth at 1 uM incubated for 48 hrs by sulforhodamine B assay relative to control; format: functional; settings: read-out: Activity
[29] = test system: MOLT-4; assay: Growth inhibition of human MOLT4 cells incubated for 48 hrs by sulforhodamine B assay; format: functional, cell-based; settings: MOLT-4, 48 h
[30] = test system: Malme-3M; assay: Growth inhibition of human MALME-3M cells assessed as cell growth at 0.1 uM incubated for 48 hrs by sulforhodamine B assay relative to control; format: functional; settings: read-out: Activity
[31] = read-out: LC50 (the source's name)
[32] = read-out: pLC50 (the source's name) (converted)

SMILES: O=C(Nc1cccc(-n2cc(-c3ccncc3)c(-c3cc(O)cc(Cl)c3)n2)c1)c1ccc(N2CCOCC2)c(C(F)(F)F)c1
- growth at 0.01 µM [1]: 94%
- growth at 0.01 µM [2]: 97%
- growth at 0.1 µM [3]: 103%
- growth at 0.01 µM [4]: 91%
- growth at 100 µM [5]: 19%
- growth at 0.01 µM [6]: 100%
- growth at 0.1 µM [7]: 102%
- growth at 1 µM [8]: 90%
- growth at 1 µM [9]: 79%
- GI50 ([10]; read-out: GI50): 0.514 µM
- CC50 [10, 31]: 25.1 µM
- TGI ([10]; read-out: TGI): 27.8 µM
- GI50 ([10]; read-out: pGI50 (converted)): 0.617 µM
- CC50 [10, 32]: 28.2 µM
- TGI ([10]; read-out: pTGI (converted)): 2.75 µM
- growth at 100 µM [11]: 1%
- growth at 0.01 µM [12]: 99%
- growth at 0.1 µM [13]: 95%
- growth at 1 µM [14]: 17%
- growth at 1 µM [15]: 89%
- GI50 ([16]; read-out: GI50): 0.554 µM
- LC50 ([16]; read-out: LC50): > 100 µM
- TGI ([16]; read-out: TGI): 40.8 µM
- GI50 ([16]; read-out: pGI50 (converted)): 0.562 µM
- LC50 ([16]; read-out: pLC50 (converted)): > 100 µM
- TGI ([16]; read-out: pTGI (converted)): 4.9 µM
- growth at 1 µM [17]: 39%
- growth at 0.01 µM [18]: 100%
- growth at 1 µM [19]: 95%
- growth at 100 µM [20]: -81%
- growth at 1 µM [21]: 40%
- growth at 0.01 µM [22]: 101%
- GI50 ([23]; read-out: GI50): 2 µM
- LC50 ([23]; read-out: LC50): > 100 µM
- TGI ([23]; read-out: TGI): > 100 µM
- GI50 ([23]; read-out: pGI50 (converted)): 2.04 µM
- LC50 ([23]; read-out: pLC50 (converted)): > 100 µM
- TGI ([23]; read-out: pTGI (converted)): > 100 µM
- growth at 100 µM [24]: -54%
- growth at 0.01 µM [25]: 113%
- GI50 ([26]; read-out: GI50): 2.24 µM
- CC50 [26, 31]: 41 µM
- TGI ([26]; read-out: TGI): 10.1 µM
- GI50 ([26]; read-out: pGI50 (converted)): 2.24 µM
- CC50 [26, 32]: 40.7 µM
- TGI ([26]; read-out: pTGI (converted)): 10 µM
- growth at 100 µM [27]: 25%
- growth at 1 µM [28]: 80%
- GI50 ([29]; read-out: GI50): 1.11 µM
- CC50 [29, 31]: > 100 µM
- TGI ([29]; read-out: TGI): 43.6 µM
- GI50 ([29]; read-out: pGI50 (converted)): 1.12 µM
- CC50 [29, 32]: > 100 µM
- TGI ([29]; read-out: pTGI (converted)): 4.47 µM
- growth at 0.1 µM [30]: 85%

SMILES: O=C(Nc1cccc(-n2cc(-c3ccncc3)c(-c3cc(O)cc(Cl)c3)n2)c1)c1cc(C(F)(F)F)cc(C(F)(F)F)c1
- growth at 0.01 µM [1]: 98%
- growth at 0.01 µM [2]: 96%
- growth at 0.1 µM [3]: 104%
- growth at 0.01 µM [4]: 58%
- growth at 100 µM [5]: 30%
- growth at 0.01 µM [6]: 95%
- growth at 0.1 µM [7]: 102%
- growth at 1 µM [8]: 91%
- growth at 1 µM [9]: 94%
- GI50 ([10]; read-out: GI50): 2.37 µM
- CC50 [10, 31]: > 100 µM
- TGI ([10]; read-out: TGI): 71.5 µM
- GI50 ([10]; read-out: pGI50 (converted)): 2.4 µM
- CC50 [10, 32]: > 100 µM
- TGI ([10]; read-out: pTGI (converted)): 7.08 µM
- growth at 100 µM [11]: 15%
- growth at 0.01 µM [12]: 99%
- growth at 0.1 µM [13]: 70%
- growth at 1 µM [14]: 53%
- growth at 1 µM [15]: 94%
- GI50 ([16]; read-out: GI50): 3.24 µM
- LC50 ([16]; read-out: LC50): > 100 µM
- TGI ([16]; read-out: TGI): > 100 µM
- GI50 ([16]; read-out: pGI50 (converted)): 3.24 µM
- LC50 ([16]; read-out: pLC50 (converted)): > 100 µM
- TGI ([16]; read-out: pTGI (converted)): > 100 µM
- growth at 1 µM [17]: 59%
- growth at 0.01 µM [18]: 98%
- growth at 1 µM [19]: 100%
- growth at 100 µM [20]: -38%
- growth at 1 µM [21]: 54%
- growth at 0.01 µM [22]: 97%
- GI50 ([23]; read-out: GI50): 3.18 µM
- LC50 ([23]; read-out: LC50): > 100 µM
- TGI ([23]; read-out: TGI): > 100 µM
- GI50 ([23]; read-out: pGI50 (converted)): 3.16 µM
- LC50 ([23]; read-out: pLC50 (converted)): > 100 µM
- TGI ([23]; read-out: pTGI (converted)): > 100 µM
- growth at 100 µM [24]: -47%
- growth at 0.01 µM [25]: 99%
- GI50 ([26]; read-out: GI50): 3.12 µM
- CC50 [26, 31]: > 100 µM
- TGI ([26]; read-out: TGI): 21.1 µM
- GI50 ([26]; read-out: pGI50 (converted)): 3.09 µM
- CC50 [26, 32]: > 100 µM
- TGI ([26]; read-out: pTGI (converted)): 20.9 µM
- growth at 100 µM [27]: 9%
- growth at 1 µM [28]: 57%
- GI50 ([29]; read-out: GI50): 2.38 µM
- CC50 [29, 31]: > 100 µM
- TGI ([29]; read-out: TGI): > 100 µM
- GI50 ([29]; read-out: pGI50 (converted)): 2.4 µM
- CC50 [29, 32]: > 100 µM
- TGI ([29]; read-out: pTGI (converted)): > 100 µM
- growth at 0.1 µM [30]: 52%

— ChEMBL document CHEMBL4308841, “Synthesis, in vitro antiproliferative activity, and kinase inhibitory effects of pyrazole-containing diarylureas and diarylamides” (Eur J Med Chem, 2018)
